Measurements published in patent EP0252380B1, “Antibiotic LL-E19020 alpha and beta” (AMERICAN CYANAMID COMPANY, priority 1986, dated 1988).
Values after ≈ are worked out from the molar mass of the structure shown. Marks after values point to notes of the source that are not given here.

Legend:
Bacteroides fragilis = test: In vitro antibacterial activity, standard agar dilution method (Table II); assay type: cell-based; details: strain NYC 77-1
Staphylococcus aureus = test: as above; assay type: cell-based
[1] = tested on: In Vitro Rumen Fermentation; test: Propionate enhancement activity during in vitro rumen fermentation; assay type: cell-based, steer; details: for A:P: acetate/propionate ratio
Experimental: The drugs are dissolved or suspended (sonified if necessary) in a 0.1% Tween 20-ethanol-water vehicle and 25-50 ul is added to the incubation. The reaction is terminated with 6N HCl and centrifuged at 20,000 x g. Alliquots of the superinatant are analyzed for volatile fatty acid (VFA) content by gas-liquid chromatography.

[2] = tested on: Bordetella bronchiseptica; test: Minimum inhibitory concentration by agar dilution (Table VI); assay type: cell-based; details: 4 strains tested
Escherichia coli = test: In vitro antibacterial activity, standard agar dilution method (Table II); assay type: cell-based; details: strain 311
Clostridium perfringens = assay type: cell-based; details: strain ATCC 13124
Treponema hyodysenteriae = test: Minimum inhibitory concentration by microdilution (Table VII); assay type: cell-based
Streptococcus agalactiae = test: Minimum inhibitory concentration by agar dilution (Table VI); assay type: cell-based; details: 4 strains tested
Enterococcus = test: In vitro antibacterial activity, standard agar dilution method (Table II); assay type: cell-based
[3] = tested on: Trichostrongylus colubriformis; test: Trichostrongylus colubriformis/gerbil anthelmintic evaluation; assay type: in vivo, Gerbils
Experimental: Gerbils are infected with 400 infective larvae of the sheep parasite, T. colubriformis on a day 0. On day 7 gerbils are divided into test and untreated control groups of 2-3 animals. Drug is administered in the feed and are fed from day 7-11. Drugs may also be given by gavage (single oral dose) or injected subcutaneously. Single doses are usually administered on day 7. Gerbils are killed on day 11 and small intestines removed. The number of T. colubriformis remaining in the intestines of treated animals are counted and compared to the number remaining in the untreated controls.

Clostridium difficile = test: In vitro antibacterial activity, standard agar dilution method (Table II); assay type: cell-based; details: strain ATCC 17858
Salmonella choleraesuis = test: Minimum inhibitory concentration by agar dilution (Table VI); assay type: cell-based; details: 2 strains tested
Enterobacter cloacae = test: In vitro antibacterial activity, standard agar dilution method (Table II); assay type: cell-based; details: strain VGH-84-37
Morganella morganii = test: as above; assay type: cell-based; details: strain VGH-84-71
[4] = tested on: Streptococcus pyogenes C203; test: In vivo antibacterial activity in infected mice (Table III); details: S. pyogenes C203, 30 minutes before infection
Klebsiella pneumoniae = test: In vitro antibacterial activity, standard agar dilution method (Table II); assay type: cell-based; details: strain AD
[5] = tested on: Staphylococcus saprophyticus; test: as above; assay type: cell-based; details: strain VHG-84-50
Streptococcus faecalis = test: Minimum inhibitory concentration by agar dilution (Table VI); assay type: cell-based; details: 1 strain tested
[6] = Weight gain and feed efficiency of broiler chicks (Example 6, Table IX); assay type: in vivo, Peterson X Arbor Acres chicks; details: for Wg Gains And Feed Efficiency % Improvement Over Controls FEED/GAIN: control 1.41

C/C=C/C=C/[C@@H]1O[C@](O)([C@H](CO[C@H]2C[C@H](OC)[C@H](O[C@@H]3C[C@H](OC)[C@@H](O[C@H]4C[C@H](OC)[C@H](O)[C@H](C)O4)[C@H](C)O3)[C@H](C)O2)C(=O)NC/C=C/C=C(\C)[C@H](OC)[C@@H](C)[C@@H]2C[C@H](O)[C@@H](/C=C/C=C/C=C\C(=O)O)O2)[C@@H](O)[C@H](OC(=O)Cc2ccccc2)C1(C)C [LL-E19020 beta]
Minimal Inhibitory Concentration (Bacteroides fragilis): >128 µg/mL
Minimal Inhibitory Concentration (Staphylococcus aureus; strain ATCC 25923): > 256 µg/mL
Minimal Inhibitory Concentration (Staphylococcus aureus; strain CMC-83-127): > 128 µg/mL
Minimal Inhibitory Concentration (Staphylococcus aureus; strain CMC-83-131): > 128 µg/mL
Minimal Inhibitory Concentration (Staphylococcus aureus; strain CMC-83-132): > 128 µg/mL
Minimal Inhibitory Concentration (Staphylococcus aureus; strain SSC-82-57): > 128 µg/mL
Minimal Inhibitory Concentration (Staphylococcus aureus; strain Smith): > 128 µg/mL
Minimal Inhibitory Concentration (Staphylococcus aureus; strain VGH-84-45): > 128 µg/mL
A:P ([1]; Table X, 0.008 PPM, control 2.65): 2.63
TOTAL VFA ([1]; Table X, 0.008 PPM, control 159.4): 161.2 mM
A:P ([1]; Table X, 0.031 PPM, control 2.65): 2.44
TOTAL VFA ([1]; Table X, 0.031 PPM, control 159.4): 161.1 mM
A:P ([1]; Table X, 0.125 PPM, control 2.65): 2.19
TOTAL VFA ([1]; Table X, 0.125 PPM, control 159.4): 161.6 mM
A:P ([1]; Table X, 0.500 PPM, control 2.65): 2.15
TOTAL VFA ([1]; Table X, 0.500 PPM, control 159.4): 156.7 mM
A:P ([1]; Table X, 2.000 PPM, control 2.65): 2.18
TOTAL VFA ([1]; Table X, 2.000 PPM, control 159.4): 153.8 mM
A:P ([1]; Table XI, 0.015 PPM, control 2.19): 2.03
TOTAL VFA ([1]; Table XI, 0.015 PPM, control 125.3): 127.2 mM
A:P ([1]; Table XI, 0.031 PPM, control 2.19): 1.98
TOTAL VFA ([1]; Table XI, 0.031 PPM, control 125.3): 125.7 mM
A:P ([1]; Table XI, 0.062 PPM, control 2.19): 1.96
TOTAL VFA ([1]; Table XI, 0.062 PPM, control 125.3): 123.7 mM
A:P ([1]; Table XI, 0.125 PPM, control 2.19): 1.92
TOTAL VFA ([1]; Table XI, 0.125 PPM, control 125.3): 124.3 mM
A:P ([1]; Table XI, 0.250 PPM, control 2.19): 1.93
TOTAL VFA ([1]; Table XI, 0.250 PPM, control 125.3): 122.6 mM
MIC [2]: > 256 µg/mL
Minimal Inhibitory Concentration (Escherichia coli): >128 µg/mL
Minimal Inhibitory Concentration (Clostridium perfringens): 4 µg/mL
MIC (Treponema hyodysenteriae; strain B78 (ATCC 27164)): 1 µg/mL (≈ 0.815 µM)
MIC (Treponema hyodysenteriae; strain B204 (ATCC 31212)): 0.5 µg/mL (≈ 0.408 µM)
MIC (Streptococcus agalactiae): 2 to 4 µg/mL
Minimal Inhibitory Concentration (Enterococcus; strain CMC-83-72): >128 µg/mL
Minimal Inhibitory Concentration (Enterococcus; strain IO-83-28): >128 µg/mL
Minimal Inhibitory Concentration (Enterococcus; strain IO-83-40): >128 µg/mL
Minimal Inhibitory Concentration (Enterococcus; strain VGH-84-65): >128 µg/mL
Minimal Inhibitory Concentration (Enterococcus; strain VGH-84-68): >128 µg/mL
% Worms Removed ([3]; 5 m/kg single oral dose): 19%
% Worms Removed ([3]; 62.5 ppm diet, fed day 7-11): 32%
% Worms Removed ([3]; 150 ppm diet, fed day 7-11): 86%
% Worms Removed ([3]; 250 ppm diet, fed day 7-11): 100%
Minimal Inhibitory Concentration (Clostridium difficile): 1 µg/mL
MIC (Salmonella choleraesuis): > 256 µg/mL
Minimal Inhibitory Concentration (Enterobacter cloacae): >128 µg/mL
Minimal Inhibitory Concentration (Morganella morganii): >128 µg/mL
Survival Ratios 7 Days After Infection ([4]; single subcutaneous dose 4 mg/kg): 2/5
Survival Ratios 7 Days After Infection ([4]; single subcutaneous dose 8 mg/kg): 3/5
Survival Ratios 7 Days After Infection ([4]; single subcutaneous dose 16 mg/kg): 5/5
Survival Ratios 7 Days After Infection ([4]; single subcutaneous dose 32 mg/kg): 5/5
Survival Ratios 7 Days After Infection ([4]; single subcutaneous dose 64 mg/kg): 5/5
Minimal Inhibitory Concentration (Klebsiella pneumoniae): >128 µg/mL
Minimal Inhibitory Concentration [5]: > 128 µg/mL
MIC (Streptococcus faecalis): 8 µg/mL (≈ 6.52 µM)
Wg Gains And Feed Efficiency % Improvement Over Controls COMBINED ([6]; 12.5 PPM in diet): 2.6%
Wg Gains And Feed Efficiency % Improvement Over Controls FEMALES ([6]; 12.5 PPM in diet): 6.0%
Wg Gains And Feed Efficiency % Improvement Over Controls MALES ([6]; 12.5 PPM in diet): 0%
Wg Gains And Feed Efficiency % Improvement Over Controls FEED/GAIN ([6]; 12.5 PPM in diet): 1.33**
Wg Gains And Feed Efficiency % Improvement Over Controls COMBINED ([6]; 25 PPM in diet): 3.4%
Wg Gains And Feed Efficiency % Improvement Over Controls FEMALES ([6]; 25 PPM in diet): 5.1%
Wg Gains And Feed Efficiency % Improvement Over Controls MALES ([6]; 25 PPM in diet): 2.4%
Wg Gains And Feed Efficiency % Improvement Over Controls FEED/GAIN ([6]; 25 PPM in diet): 1.38*
Wg Gains And Feed Efficiency % Improvement Over Controls COMBINED ([6]; 50 PPM in diet): 2.2%
Wg Gains And Feed Efficiency % Improvement Over Controls FEMALES ([6]; 50 PPM in diet): 4.6%
Wg Gains And Feed Efficiency % Improvement Over Controls MALES ([6]; 50 PPM in diet): 0%
Wg Gains And Feed Efficiency % Improvement Over Controls FEED/GAIN ([6]; 50 PPM in diet): 1.38*
Wg Gains And Feed Efficiency % Improvement Over Controls COMBINED ([6]; 100 PPM in diet): 4.5%
Wg Gains And Feed Efficiency % Improvement Over Controls FEMALES ([6]; 100 PPM in diet): 7.2%
Wg Gains And Feed Efficiency % Improvement Over Controls MALES ([6]; 100 PPM in diet): 1.7%
Wg Gains And Feed Efficiency % Improvement Over Controls FEED/GAIN ([6]; 100 PPM in diet): 1.34**
Wg Gains And Feed Efficiency % Improvement Over Controls COMBINED ([6]; 200 PPM in diet): 2.7%
Wg Gains And Feed Efficiency % Improvement Over Controls FEMALES ([6]; 200 PPM in diet): 1.4%
Wg Gains And Feed Efficiency % Improvement Over Controls MALES ([6]; 200 PPM in diet): 4.2%
Wg Gains And Feed Efficiency % Improvement Over Controls FEED/GAIN ([6]; 200 PPM in diet): 1.35**
